Reference: publication PMC9061999, “Application of the Adverse Outcome Pathway Concept to In Vitro Nephrotoxicity Assessment: Kidney Injury due to Receptor-Mediated Endocytosis and Lysosomal Overload as a Case Study” (Frontiers in Toxicology, 2022)
Like-named read-outs stand apart in the source and are kept apart here.

Assays:
[1] = cited from earlier work
Text: Plasma/Serum Treatment KE BMC10 [µM] Concentration MOE [µM] RPTEC/TERT1 / Human KE1 4.2 1.0 - 7.4 Polymyxin B KE2 6.8 1.7 - 11.9 0.57 – 4.1 (1,2 ...

NRK-52E cells = assay: CellTiter-Glo cytotoxicity assay (KE3); type: cell-based, rat; conditions: for BMC10, KE3: in vitro POD from KE dose-response, cell viability CellTiter-Glo, NRK-52E, 24 h treatment, n = 3; for MOE, KE3: margin of exposure: BMC10 in NRK-52E vs rat plasma/serum concentration (cmax or css)
Experimental: Cells were plated into 96-well tissue culture plates (10,000 cells per well) and were allowed to grow for 48 h (NRK-52E) respectively 10 d (RPTEC/TERT1) prior to 24 h treatment with model stressors. Stock solution for each compound (2000 µM) was prepared in growth medium and serial dilutions (1:1) were made before each experiment. At the end of the 24 h treatment, cell viability was measured using the CellTiter-Glo® assay (Promega). CellTiter-Glo® reagents and buffer were mixed under light-protected conditions and 100 µL CellTiter-Glo® solution was added directly to each well followed by 2 min incubation on an orbital shaker and 10 min incubation at room temperature in the dark to stabilize the luminescence signal. The suspension was mixed via pipetting and 50 µL were transferred into white 96-well plates (PerkinElmer Inc.). The luminescence signal was measured on a multiplate reader (Mithras LB 940; Berthold). Each assay was performed in three independent experiments carried out in triplicates.

RPTEC/TERT1 cells = type: cell-based, human
Experimental: For high content imaging, NRK-52E and RPTEC/TERT1 cells were cultivated in µ-clear half well area microtiter plates (Greiner) according to the protocol described for the cytotoxicity assay with slight modification. Briefly, NRK-52E cells were seeded at 5,000 cells in 100 µL growth medium per well and were incubated under standard growth conditions for 48 h prior to treatment. RPTEC/TERT1 cells were seeded at 15,000 cells in 100 µL growth medium per well and incubated under standard growth conditions for 7–8 days, until cells reached confluence and started to differentiate. This was indicated by the formation of three-dimensional structures referred to as domes which were identified by regular microscopic inspection of the plates. Only differentiated cell cultures with detectable domes were assayed. Cells of both cell lines were treated with serially diluted Polymyxin B sulfate (concentration range 7.8 to 2,000 µM) for 1, 2, 4, 6, or up to 24 h. The assay was carried out on three biological replicates defined as three different non-consecutive passages of the cell culture. Each biological replicate at each treatment concentration was assayed in triplicate wells per plate.
Following treatment, cells were stained with two different combinations of fluorescent dyes: NRK-52E cells with 50 pg/μL LysoView™ 633 (Biotium) and 1 µM SYTO 16 (Thermo Scientific), respectively, for lysosomes and nuclei; RPTEC/TERT1 cells with 10 nM LysoTracker™ Red (Thermo Scientific) and 10 ng/μL Hoechst 33342 (Merck-Sigma Aldrich), respectively, for lysosomes and nuclei. For each cell line a staining solution was obtained by mixing the lysosomes and nuclei dyes in cell culture medium at the concentrations indicated above. The cells were stained by replenishing the medium for 100 µL of staining solution per well followed by incubation at 37°C and 5% CO2 for 30 min before imaging.
Images were acquired with a fully automated fluorescence confocal Opera™ QEHS system (PerkinElmer, United Kingdom) using a ×40 air UPlanApo objective (Olympus) with 0.85 numerical aperture. NRK-52E cells stained with the dyes SYTO 16 and LysoView™633 were imaged with the laser lines 488 and 635 nm, using a 488/561/635 nm primary dichroic mirror, a 510 nm long pass (LP) detection dichroic mirror, a 540/75 nm band pass (BP) emission filter for SYTO 16 and a 690/50 nm BP emission filter for LysoView™ 633. RPTEC/TERT1 cells stained with the dyes Hoechst 33342 and LysoTracker™Red were imaged with the laser lines 405 and 561 nm, using a 405/561/635 nm primary dichroic mirror, a 580 nm LP detection dichroic mirror, a 450/50 nm BP emission filter for Hoechst 33342 and a 600/40 nm BP emission filter for LysoTracker™Red. To prevent cross talk of the fluorescent signals, each dye was imaged consecutively using the combination of lasers and filters described above. The settings for laser power, exposure time and focal height were kept constant for each cell line across all the experiments. For NRK-52E cells images were acquired at 25 randomly distributed positions in a well at a single focal plane whereas for RPTEC/TERT1 cells due to the development of dome structures images were acquired at 9 random positions at three focal planes each 1 μm apart.
The images were analyzed by custom-made image analysis scripts either with the imaging analysis software Acapella (version 2.8 PerkinElmer) or Columbus (version 2.4.0 PerkinElmer). The scripts included modules for the identification and counting of the cell nuclei to extrapolate the number of cells per well, for definition of a cytoplasm surrounding the nucleus, for identification and counting of the lysosome vesicles within the cytoplasm. Additional cellular parameters included the nuclei size, intensity, the cell size (cell area), the lysosome size (lysosome area), intensity and the number of lysosomes normalized by the cell area to compensate for difference in size of the cells.

[2] = RPTEC/TERT1, 250 µM, high content imaging

## Colistin
[1]; human, cmax or css at therapeutic or known nephrotoxic doses, ref 3,4 (Tran et al., 2016; Sorli et al., 2017)
  Plasma/Serum Concentration: 0.42 to 8.1 µM
NRK-52E cells
  BMC10, KE3: 135.5 µM
  MOE, KE3: 13.0 – 26.6
RPTEC/TERT1 cells; RPTEC/TERT1, 24 h, 7.8 to 2000 µM (smaller range for CdCl2 and 4-aminophenol), triplicate experiments, Figure S1
  Effect on lysosomal endpoints in high content screening: most prominent effects on lysosomal endpoints

## Polymyxin B
[1]; human, cmax or css at therapeutic or known nephrotoxic doses, ref 1,2 (Sandri et al., 2013; Manchandani et al., 2016)
  Plasma/Serum Concentration: 0.57 to 4.1 µM
[1]; rat, cmax or css at human equivalent or nephrotoxic doses, ref 5 (Nilsson et al., 2015)
  Plasma/Serum Concentration: 7.0 to 7.1 µM
NRK-52E cells
  BMC10, KE3: 19.9 µM
  MOE, KE3: 2.8
RPTEC/TERT1 cells; RPTEC/TERT1, 125 µM, high content imaging (nuclei area, nuclei intensity)
  Treatment time at which nuclear changes were first recorded: 4 h
RPTEC/TERT1 cells; RPTEC/TERT1, 125 µM, high content imaging, three biological replicates in triplicate wells
  Treatment time at which lysosomal effects were measurable: 1 h
RPTEC/TERT1 cells; [2]
  Treatment time at which lysosomal effects were measurable: 1 h
  Treatment time at which nuclear changes were first recorded: 2 h
RPTEC/TERT1 cells; RPTEC/TERT1, 24 h treatment, Figure S1
  Cytotoxicity in high content screening: severe cytotoxicity
